{"source": "patent US20190142949A1", "about": "“COVALENT CONJUGATES” (GLAXOSMITHKLINE INTELLECTUAL PROPERTY DEVELOPMENT LIMITED, priority 2015, published 2019)", "key": {"[1]": {"system": "LPS induced MCP-1 production from human whole blood", "experiment": "LPS induced MCP-1 production from human whole blood", "type": "cell-based", "details": "LPS 200 ng/mL, 18-24 hours, read-out: pIC50, LPS induced MCP-1 production (converted)", "method": "Activation of monocytic cells by agonists of toll-like receptors such as bacterial lipopolysaccharide (LPS) results in production of key inflammatory mediators including MCP-1. Such pathways are widely considered to be central to the pathophysiology of a range of auto-immune and inflammatory disorders. Blood is collected in a tube containing Sodium heparin (Leo Pharmaceuticals) (10 units of heparin/mL of blood). 96-well compound plates containing 1 μL test sample in 100% DMSO were prepared (two replicates on account of donor variability). 130 μL of whole blood was dispensed into each well of the 96-well compound plates and incubated for 30 min at 37° C., 5% CO2. 10 μL of lipopolysaccharide (from Salmonella typhosa; L6386) made up in PBS (200 ng/mL final assay concentration) was added to each well of the compound plates. The plates were then placed in the humidified primary cell incubator for 18-24 hours at 37° C., 5% CO2. 140 μL of PBS was added to all wells of the compound plates containing blood. The plates were then sealed and centrifuged for 10 mins at 2500 rpm. […] 150 μL of 2×MSD Read Buffer T (stock 4×MSD Read Buffer T was diluted 50:50 with de-ionised water) was then added to each well and the plates read on the MSD Sector Imager 6000. Concentration response curves for each compound were generated from the data and an IC50 value was calculated."}, "[2]": {"target": "T1, Bromodomain BRD4 Binding Domain 1 (BD1) [BRD4 (Y390A)] (Homo sapiens, UniProt O60885, Y390A)", "T1 construct": "made in house; host or cells: E. coli (pET15b vector)", "experiment": "TR-FRET binding assay, Bromodomain BRD4 BD1 mutant assay", "details": "for IC50: TR-FRET, BRD4 (Y390A) 10 nM, Alexa Fluor647 ligand at Kd, read-out: pIC50 in the BRD4 BD1 assay (converted)", "method": "Binding was assessed using a time resolved fluorescent resonance energy transfer binding assay. This utilises a 6 His purification tag at the N-terminal of the proteins as an epitope for an anti-6 His antibody labeled with Europium chelate (PerkinElmer AD0111) allowing binding of the Europium to the proteins which acts as the donor fluorophore. A small molecule, high affinity binder of the bromodomain BRD4 has been labeled with Alexa Fluor647 (Reference Compound X) and this acts as the acceptor in the FRET pair.\nIn the absence of a competing compound, excitation of the Europium causes the donor to emit at λ618 nm which excites the Alexa labelled bromodomain binding compound leading to an increased energy transfer that is measurable at λ647 nM. In the presence of a sufficient concentration of a compound that can bind these proteins, the interaction is disrupted leading to a quantifiable drop in fluorescent resonance energy transfer.\nThe binding of Examples 1 to 11 to Bromodomain BRD4 was assessed using mutated proteins to detect differential binding to Binding Domain 1 (BD1) on the bromodomain. These single residue mutations in the acetyl lysine binding pocket greatly lower the affinity of the fluoroligand (Reference Compound X) for the mutated domain (>1000 fold selective for the non-mutated domain). Therefore in the final assay conditions, binding of the fluoroligand to the mutated domain cannot be detected and subsequently the assay is suitable to determine the binding of compounds to the single non-mutated bromodomain.\nRecombinant Human Bromodomain [BRD4 (Y390A)] was expressed in E colicells (pET15b vector) with a 6-His tag at the N-terminal. […]\nAll assay components were dissolved in buffer composition of 50 mM HEPES pH7.4, 50 mM NaCl, 5% Glycerol, 1 mM DTT and 1 mM CHAPS. […] Plates were then read on the Envision platereader, (λex=317 nm, donor λem=615 nm; acceptor λem=665 nm; Dichroic LANCE dual). Time resolved fluorescent intensity measurements were made at both emission wavelengths and the ratio of acceptor/donor was calculated and used for data analysis. […]"}}}
{"smiles": "Cc1cc(-c2nc3cc(CN[C@@H](CC(C)C)C(=O)OC4CCCC4)ccc3n2CC2CCOCC2)c[nH]c1=O", "note": "[Example 3, (S)-cyclopentyl 4-methyl-2-(((2-(5-methyl-6-oxo-1,6-dihydropyridin-3-yl)-1-((tetrahydro-2H-pyran-4-yl)methyl)-1H-benzo[d]imidazol-5-yl)methyl)amino)pentanoate]", "values": [{"measurement": "IC50", "setting": "[1]", "result": 79.4, "unit": "nM"}, {"measurement": "IC50", "setting": "[2]", "result": 794, "unit": "nM"}]}
{"smiles": "COc1ccc2c(c1)C(c1ccc(Cl)cc1)=N[C@@H](CC(=O)NCCCCCNC(=O)CCCCCC1(C)/C(=C/C=C/C=C/C3=[N+](CCCCS(=O)(=O)O)c4ccc(S(=O)(=O)O)cc4C3(C)C)N(CCCCS(=O)(=O)[O-])c3ccc(S(=O)(=O)O)cc31)c1nnc(C)n1-2", "note": "(some centres unmarked) [Reference Compound X, reference compound]", "values": [{"measurement": "selectivity of the fluoroligand for the non-mutated domain over the mutated domain", "setting": "[2]; single residue mutations in the acetyl lysine binding pocket", "result": "> 1000", "unit": "fold"}]}
{"smiles": "Cc1cc(-c2nc3ccccc3n2CC2CCOCC2)c[nH]c1=O", "note": "[Example 10, 3-methyl-5-(1-((tetrahydro-2H-pyran-4-yl)methyl)-1H-benzo[d]imidazol-2-yl)pyridin-2(1H)-one]", "values": [{"measurement": "IC50", "setting": "[1]", "result": 2510, "unit": "nM"}, {"measurement": "IC50", "setting": "[2]", "result": 398, "unit": "nM"}]}
